In this assay the test system is CD2F1 mice, L1210 leukemia ip, survival T/C. Put plainly: NCI In Vivo Anticancer Drug Screen. Data for tumor model L1210 Leukemia (intraperitoneal) in CD2F1 (CDF1) mice. The following applies: higher = longer survival. An outline of the steps: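 Activity against a transplanted murine tumor was judged by comparing the compound group with a vehicle group. The outcome in the treated animals was divided by that in the controls.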

Where [1] appears, read: endpoint: mean survival time, dose: 100.0 mg/kg/injection, schedule: Q01DX001 (ip), vehicle: saline with Tween-80.
Where [2] appears, read: endpoint: mean survival time, dose: 100.0 mg/kg/injection, schedule: Q04DX003 (ip), vehicle: saline with Tween-80.
[3] abbreviates: endpoint: mean survival time, dose: 200.0 mg/kg/injection, schedule: Q01DX001 (ip), vehicle: saline with Tween-80.
Setting [4] is: endpoint: mean survival time, dose: 200.0 mg/kg/injection, schedule: Q04DX003 (ip), vehicle: saline with Tween-80.
Setting [5] is: endpoint: mean survival time, dose: 400.0 mg/kg/injection, schedule: Q01DX001 (ip), vehicle: saline with Tween-80.
[6] abbreviates: endpoint: mean survival time, dose: 400.0 mg/kg/injection, schedule: Q04DX003 (ip), vehicle: saline with Tween-80.
Where [7] appears, read: endpoint: mean survival time, dose: 50.0 mg/kg/injection, schedule: Q01DX009 (ip), vehicle: saline with Tween-80.
The mark [8] stands for this setting: endpoint: mean survival time, dose: 100.0 mg/kg/injection, schedule: Q01DX009 (ip), vehicle: saline with Tween-80.
The mark [9] stands for this setting: endpoint: mean survival time, dose: 200.0 mg/kg/injection, schedule: Q01DX009 (ip), vehicle: saline with Tween-80.
The mark [10] stands for this setting: endpoint: mean survival time, dose: 100.0 mg/kg/injection, schedule: Q04DX002 (ip), vehicle: saline with Tween-80.
The mark [11] stands for this setting: endpoint: mean survival time, dose: 200.0 mg/kg/injection, schedule: Q04DX002 (ip), vehicle: saline with Tween-80.
Where [12] appears, read: endpoint: mean survival time, dose: 400.0 mg/kg/injection, schedule: Q01DX009 (ip), vehicle: saline with Tween-80.

The source of these data is PubChem BioAssay AID256 (DTP/NCI, 2004).

Structures are written as SMILES. Values joined by “and” are separate entries in the source; they are usually repeats but may differ in a detail not shown here. Identical values can stand only once. Toxic doses and inconclusive results are not listed.

In the case of `C=C1C(=O)OC2/C=C(\C)CC(O)/C=C(/CO)CC(OC(=O)/C(C)=C/C)C12` (stereo not drawn), the T/C is, setting by setting: (endpoint: median survival time, dose: 15.0 mg/kg/injection, schedule: Q01DX009 (ip), vehicle: saline) 103 % of control; (endpoint: median survival time, dose: 30.0 mg/kg/injection, schedule: Q01DX009 (ip), vehicle: saline) 108 % of control; (endpoint: median survival time, dose: 60.0 mg/kg/injection, schedule: Q01DX009 (ip), vehicle: saline) 105 % of control; (endpoint: median survival time, dose: 120.0 mg/kg/injection, schedule: Q01DX009 (ip), vehicle: saline) 95 % of control.
In the case of `COc1cc(CNCc2ccccc2)ccc1O`, the T/C is, setting by setting: (endpoint: mean survival time, dose: 75.0 mg/kg/injection, schedule: Q01DX001 (ip), vehicle: other) 90 % of control; (endpoint: mean survival time, dose: 150.0 mg/kg/injection, schedule: Q01DX001 (ip), vehicle: other) 93 % of control; (endpoint: mean survival time, dose: 300.0 mg/kg/injection, schedule: Q01DX001 (ip), vehicle: other) 95 % of control.
With `c1ccc(-c2ccccc2N=C2N=NN=N2)cc1`, the T/C under setting [1] was 96 % of control; the T/C under setting [2] is 103 % of control; the T/C under setting [3] was 114 % of control; the T/C under setting [4] was 93 % of control; the T/C under setting [5] is 94 % of control; the T/C under setting [6] was 97 % of control.
As to `COc1cc(Cl)ccc1C`, the T/C was 97 % of control (endpoint: mean survival time, dose: 12.5 mg/kg/injection, schedule: Q01DX009 (ip), vehicle: saline with Tween-80); 97 % of control (endpoint: mean survival time, dose: 25.0 mg/kg/injection, schedule: Q01DX009 (ip), vehicle: saline with Tween-80); 95 % of control under setting [7]; 100 % of control under setting [8]; 91 % of control under setting [9].
For `c1coc(CNc2ncnc3c2ncn3Cc2ccco2)c1`, the T/C (endpoint: mean survival time, dose: 6.25 mg/kg/injection, schedule: Q01DX005 (ip), vehicle: other) was 96 % of control; the T/C (endpoint: mean survival time, dose: 12.5 mg/kg/injection, schedule: Q01DX005 (ip), vehicle: other) was 90 % of control; the T/C (endpoint: mean survival time, dose: 25.0 mg/kg/injection, schedule: Q01DX005 (ip), vehicle: other) is 90 % of control.
For the molecule `COC(=O)/C([O-])=C(\C(=O)OC)[n+]1cc(Br)cc2ccccc21`, the T/C reads like this: under setting [10], 101 % of control; under setting [11], 104 % of control.
Take `C/C=C(\C)C(C)O` (stereo not drawn): the T/C is 87 % of control (endpoint: mean survival time, dose: 50.0 mg/kg/injection, schedule: Q01DX005 (ip), vehicle: saline); 98 % of control under setting [7]; 92 % of control (endpoint: mean survival time, dose: 50.0 mg/kg/injection, schedule: Q04DX002 (ip), vehicle: saline + alcohol); 102 % of control (endpoint: mean survival time, dose: 100.0 mg/kg/injection, schedule: Q01DX005 (ip), vehicle: saline); 98 % of control under setting [8]; 103 % of control (endpoint: mean survival time, dose: 100.0 mg/kg/injection, schedule: Q04DX002 (ip), vehicle: saline + alcohol). The T/C by setting is: (endpoint: mean survival time, dose: 200.0 mg/kg/injection, schedule: Q01DX005 (ip), vehicle: saline) 94 % of control; under setting [9], 95 % of control; (endpoint: mean survival time, dose: 200.0 mg/kg/injection, schedule: Q04DX002 (ip), vehicle: saline + alcohol) 101 % of control; (endpoint: mean survival time, dose: 400.0 mg/kg/injection, schedule: Q01DX005 (ip), vehicle: saline) 94 % of control; under setting [12], 102 % of control; (endpoint: mean survival time, dose: 400.0 mg/kg/injection, schedule: Q04DX002 (ip), vehicle: saline + alcohol) 103 % of control.
For `Cc1cc([N+](=O)[O-])ccc1NC(=S)NC(=O)COc1ccccc1`, the T/C under setting [1] was 95 % of control; the T/C under setting [8] is 93 % of control and 102 % of control; the T/C under setting [10] is 95 % of control; the T/C under setting [2] was 98 % of control; the T/C under setting [3] was 89 % of control; the T/C under setting [9] was 93 % of control. For the same molecule, the T/C by setting is: under setting [11], 91 % of control; under setting [4], 97 % of control; under setting [5], 87 % of control; under setting [12], 92 % of control; under setting [6], 93 % of control.
For the molecule `O=C(C[n+]1cc2ccccc2cc1/C=N/O)c1ccccc1`, the T/C was 98 % of control under setting [7]; 93 % of control under setting [8]; 95 % of control under setting [2]; 96 % of control under setting [9]; 95 % of control under setting [4].
As for `COc1cc(OC)c(NC(=O)Nc2cccc(C(=O)O)c2)cc1Cl`, the T/C under setting [7] is 88 % of control, the T/C under setting [8] is 88 % of control and the T/C under setting [9] was 92 % of control.
As to `CC(=O)/C(C#N)=C(\C)N`, the T/C was 103 % of control (endpoint: mean survival time, dose: 50.0 mg/kg/injection, schedule: Q04DX002 (ip), vehicle: saline); 103 % of control (endpoint: mean survival time, dose: 100.0 mg/kg/injection, schedule: Q04DX002 (ip), vehicle: saline); 103 % of control (endpoint: mean survival time, dose: 200.0 mg/kg/injection, schedule: Q04DX002 (ip), vehicle: saline).
`CC(=O)Nc1ccccc1C(=O)C(=O)Nc1ccccc1C(=O)NN`: the T/C under setting [7] is 95 % of control, the T/C under setting [8] is 91 % of control and the T/C under setting [9] is 87 % of control.
Consider `COc1ccc(CCCC(=O)O)cc1`, for which the T/C is 94 % of control under setting [1], 92 % of control under setting [3] and 94 % of control under setting [5].
With `CC[C@@]1(O)C(=O)OCc2c1cc1n(c2=O)Cc2cc3c(N)cccc3nc2-1`, the T/C reads like this: (endpoint: median survival time, dose: 0.25 mg/kg/injection, schedule: Q01DX005 (ip), vehicle: saline with Tween-80) 168 % of control; (endpoint: median survival time, dose: 0.3 mg/kg/injection, schedule: Q01DX005 (ip), vehicle: saline with Tween-80) 150 % of control; (endpoint: median survival time, dose: 0.5 mg/kg/injection, schedule: Q01DX005 (ip), vehicle: saline with Tween-80) 182 % of control and 223 % of control; (endpoint: median survival time, dose: 0.63 mg/kg/injection, schedule: Q04DX002 (ip), vehicle: saline with Tween-80) 202 % of control; (endpoint: median survival time, dose: 0.84 mg/kg/injection, schedule: Q01DX005 (ip), vehicle: saline with Tween-80) 182 % of control; (endpoint: median survival time, dose: 1.0 mg/kg/injection, schedule: Q01DX005 (ip), vehicle: saline with Tween-80) 108 % of control. Further, the T/C is 228 % of control (endpoint: median survival time, dose: 1.25 mg/kg/injection, schedule: Q04DX002 (ip), vehicle: saline with Tween-80); 365 % of control (endpoint: median survival time, dose: 1.39 mg/kg/injection, schedule: Q01DX005 (ip), vehicle: saline with Tween-80); 87 % of control (endpoint: median survival time, dose: 2.0 mg/kg/injection, schedule: Q01DX005 (ip), vehicle: saline with Tween-80); 121 % of control (endpoint: median survival time, dose: 2.32 mg/kg/injection, schedule: Q01DX005 (ip), vehicle: saline with Tween-80); 348 % of control and 361 % of control (endpoint: median survival time, dose: 2.5 mg/kg/injection, schedule: Q04DX002 (ip), vehicle: saline with Tween-80); 220 % of control and 361 % of control (endpoint: median survival time, dose: 5.0 mg/kg/injection, schedule: Q04DX002 (ip), vehicle: saline with Tween-80). For the same molecule, the T/C (endpoint: median survival time, dose: 10.0 mg/kg/injection, schedule: Q04DX002 (ip), vehicle: saline with Tween-80) is 93 % of control.
`CC1(C)N=C(N)N=C(N)N1c1ccc(OCC(=O)N2CCOCC2)c(Cl)c1`: the T/C (endpoint: mean survival time, dose: 6.25 mg/kg/injection, schedule: Q01DX009 (ip), vehicle: saline) was 98 % of control; the T/C (endpoint: mean survival time, dose: 12.5 mg/kg/injection, schedule: Q01DX009 (ip), vehicle: saline) was 97 % of control; the T/C (endpoint: mean survival time, dose: 25.0 mg/kg/injection, schedule: Q01DX009 (ip), vehicle: saline) is 92 % of control; the T/C (endpoint: mean survival time, dose: 50.0 mg/kg/injection, schedule: Q01DX009 (ip), vehicle: saline) is 98 % of control; the T/C (endpoint: mean survival time, dose: 100.0 mg/kg/injection, schedule: Q01DX009 (ip), vehicle: saline) was 98 % of control.
Consider `CCN(CC)CCNCc1c[nH]c(=S)[nH]c1=O`, for which the T/C by setting is: (endpoint: mean survival time, dose: 100.0 mg/kg/injection, schedule: Q04DX003 (ip), vehicle: saline) 103 % of control; (endpoint: mean survival time, dose: 200.0 mg/kg/injection, schedule: Q04DX003 (ip), vehicle: saline) 97 % of control; (endpoint: mean survival time, dose: 400.0 mg/kg/injection, schedule: Q04DX003 (ip), vehicle: saline) 101 % of control.
In the case of `CC(O)C(O)C(O)C(/C=N\N=C(/N)[S-])=N/N=C(\N)[S-].[Pt+2]` (stereo not drawn), the T/C under setting [1] is 111 % of control; the T/C under setting [8] was 91 % of control; the T/C under setting [2] is 88 % of control; the T/C under setting [3] is 104 % of control; the T/C under setting [9] is 94 % of control; the T/C under setting [4] was 96 % of control. For the same molecule, the T/C runs as follows: under setting [5], 106 % of control; under setting [12], 89 % of control; under setting [6], 89 % of control.
With `CCCCCC#CC(=O)OC`, the T/C was 95 % of control under setting [7]; 104 % of control under setting [8]; 94 % of control under setting [2]; 103 % of control under setting [9]; 96 % of control under setting [4].
